Measurements taken from patent publication US8846636B2, “Nucleoside analogues with quaternary carbon stereogenic centers and methods of use” (LCB Pharma Inc., priority 2008, dated 2014).

Key:
Type in all cases: cell-based
MOLT-4 = test: MTT cell proliferation assay, MOLT-4; conditions: Homo sapiens, MOLT-4, MOLT-4 cell line (acute lymphoblastic leukemia)
Experimental: (§1) The antiviral and antitumor activities of the compounds of the invention were evaluated by a cellular proliferation assay. The MTT [3-(4,5-dimethylthiazol-2-yl)-2,5-diphenyltetrazolium bromide] assay, first described by Mosmann (Mosmann T., “Rapid colorimetric assay for cellular growth and survival: application to proliferation and cytotoxicity assays,” J. Immunol. Methods 1983 Dec. 16; 65(1-2):55-63, and incorporated by reference in its entirety) is based on the ability of a mitochondrial dehydrogenase enzyme from viable cells to cleave the tetrazolium rings of the pale yellow MTT. The cleavage reaction form a dark blue formazan crystals which is largely impermeable to cell membranes and accumulation within healthy cells. Solubilisation of the cells by the addition of a detergent liberates and solubilizes the crystals. The number of surviving cells is directly proportional to the level of the formazan product created. The color can then be quantified using a simple colorimetric assay. The results can be read on a multiwell scanning spectrophotometer (ELISA reader).
(§2) In Tables 1 and 2, IC50 values are presented for various cell lines in micromolar units (μm), “Gemci” is Gemcitabine, and “5-FU” is 5-fluorouracil.

HCT 116 = test: MTT cell proliferation assay, HCT 116; conditions: Homo sapiens; HCT 116 cell line (colon)
Experimental: as §1, §2

786-O = test: MTT cell proliferation assay, 786-O; conditions: Homo sapiens, 786-0; 786-O cell line (kidney)
Experimental: as §1, §2

NCI H1395 = test: MTT cell proliferation assay, NCI H1395; conditions: Homo sapiens, NCI-H1395, NCI H1395 cell line (lung)
Experimental: as §1, §2

Colo 829 = test: MTT cell proliferation assay, Colo 829; conditions: Homo sapiens; Colo 829 cell line (skin)
Experimental: as §1, §2

22Rv1 = test: MTT cell proliferation assay, 22Rv1; conditions: Homo sapiens; 22Rv1 cell line (prostate)
Experimental: as §1, §2

BxPC-3 = test: MTT cell proliferation assay, BxPC-3; conditions: Homo sapiens; BxPC-3 cell line (pancreas)
Experimental: as §1, §2

OVCAR3 = test: MTT cell proliferation assay, OVCAR3; conditions: Homo sapiens, OVCAR-3; OVCAR3 cell line (ovary)
Experimental: as §1, §2

DLD-1 = test: MTT cell proliferation assay, DLD-1; conditions: Homo sapiens; DLD-1 cell line (colon)
Experimental: as §1, §2

PFSK-1 = test: MTT cell proliferation assay, PFSK-1; conditions: Homo sapiens; PFSK-1 cell line (brain)
Experimental: as §1, §2

HCC1143 = test: MTT cell proliferation assay, HCC1143; conditions: Homo sapiens; HCC1143 cell line (mammary gland; breast)
Experimental: as §1, §2

1A6 = test: MTT cell proliferation assay, 1A6; conditions: 1A6 cell line (urinary bladder)
Experimental: as §1, §2

MCF7 = test: MTT cell proliferation assay, MCF7; conditions: Homo sapiens; MCF7 cell line (mammary gland; breast)
Experimental: as §1, §2

ZR-75-1 = test: MTT cell proliferation assay, ZR-75-1; conditions: Homo sapiens; ZR-75-1 cell line (mammary gland; breast)
Experimental: as §1, §2

NCI H2052 = test: MTT cell proliferation assay, NCI H2052; conditions: Homo sapiens; NCI H2052 cell line (tumor stage 4 derived from pleural effusion)
Experimental: as §1, §2

HL-60 = test: MTT cell proliferation assay, HL-60; conditions: Homo sapiens; HL-60 cell line (acute promyelocytic leukemia)
Experimental: as §1, §2

IC50 (MOLT-4)	IC50 (HCT 116)	IC50 (786-O)	IC50 (Colo 829)	IC50 (22Rv1)	IC50 (BxPC-3)	IC50 (OVCAR3)	IC50 (DLD-1)	IC50 (HCC1143)	IC50 (MCF7)	IC50 (HL-60)	SMILES	IC50 (NCI H1395)	IC50 (PFSK-1)	IC50 (1A6)	IC50 (ZR-75-1)	IC50 (NCI H2052)
< 0.5 µM	< 0.5 µM	> 500 µM	< 0.5 µM	> 500 µM	< 0.5 µM	5 µM	> 500 µM	400 µM	> 500 µM	< 0.5 µM	Nc1ccn([C@@H]2O[C@H](CO)[C@@H](O)C2(F)F)c(=O)n1 [Gemci., Gemcitabine, reference compound]	< 0.5 µM	> 500 µM	5 µM	> 500 µM	> 500 µM
> 500 µM	> 500 µM	> 500 µM	> 500 µM	> 500 µM	> 500 µM	> 500 µM	> 500 µM	> 500 µM	> 500 µM	> 500 µM	CC1(CO)C(O)[C@H](n2cnc3c(=O)nc(N)[nH]c(=O)c32)O[C@@H]1CO (stereo in doubt) [LCB-1097, 6-amino-1-((2R,3R,4S,5S)-3-hydroxy-4,5-bis(hydroxymethyl)-4-methyltetrahydrofuran-2-yl)imidazo[4,5-e][1,3]diazepine-4,8(1H,5H)-dione]	> 500 µM	> 500 µM	> 500 µM	210 µM	> 500 µM
